The results in this text go back to PubChem BioAssay (NCI).

Values joined by “and” are separate entries in the source; they are usually repeats but may differ in a detail not shown here. Equal entries are not always repeated.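 Where inhibition never reached the appropriate level, the endpoint shown equals the highest concentration tested. Otherwise, values were interpolated linearly from a five-concentration, 48-hour dose response in 96-well plates. GI50 = concentration required for 50% inhibition of growth. Definition used: TGI = concentration required for complete inhibition of growth.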 A value given as a limit tells only on which side of the number the result lay.

Test systems include CCRF-CEM leukemia; KM12 colon; A549 NSCLC; HOP-62 NSCLC; HL-60(TB) leukemia; M14 melanoma; TK-10 renal; SF-268 CNS; SK-OV-3 ovarian; UACC-257 melanoma.
What all share (experiment): NCI tumour cell line growth inhibition, 48 h

As for `COC(=O)C1CCC(C)CC1=O` (stereo not given), the TGI with CCRF-CEM leukemia, in the test on KM12 colon, in the test on A549 NSCLC, in the test on HOP-62 NSCLC, in the test with HL-60(TB) leukemia and with M14 melanoma was greater than 100 µM throughout. The TGI in the test with TK-10 renal, in the test with SF-268 CNS, in the test with SK-OV-3 ovarian and with UACC-257 melanoma was greater than 100 µM throughout.
Regarding `C[n+]1cn(CC(=O)c2ccccc2)c(C(N)=O)c1N`, the TGI in the test with CCRF-CEM leukemia, with KM12 colon, in the test with A549 NSCLC, in the test on HOP-62 NSCLC, in the test with HL-60(TB) leukemia and in the test with M14 melanoma was greater than 100 µM throughout. The TGI with TK-10 renal, with SF-268 CNS, with SK-OV-3 ovarian and in the test with UACC-257 melanoma was greater than 100 µM each time.
`COc1cc([C@@H]2c3cc4c(cc3[C@H](SC(=N)N)[C@H]3COC(=O)[C@H]23)OCO4)cc(OC)c1OC`: the GI50 in the test with CCRF-CEM leukemia was 0.299 µM; with KM12 colon it was 0.0944 µM; with A549 NSCLC, 0.305 µM; in the test with HOP-62 NSCLC, 0.419 µM; in the test on HL-60(TB) leukemia, 0.25 µM; in the test with M14 melanoma, 0.288 µM. The GI50 is 2.48 µM with TK-10 renal, 0.421 µM with SF-268 CNS, 0.201 µM in the test with SK-OV-3 ovarian and 15.1 µM in the test on UACC-257 melanoma. In addition, the TGI with CCRF-CEM leukemia is greater than 100 µM; in the test on KM12 colon it was 0.409 µM; in the test on A549 NSCLC it was greater than 100 µM; with HOP-62 NSCLC, greater than 100 µM; in the test with HL-60(TB) leukemia, greater than 100 µM; with M14 melanoma, greater than 100 µM. Further, the TGI in the test on TK-10 renal was greater than 78.9 µM; in the test on SF-268 CNS, greater than 100 µM; with SK-OV-3 ovarian, greater than 33 µM; in the test on UACC-257 melanoma it was greater than 100 µM.
As to `CS(=O)(=O)OCCN1CCN(C(=O)c2ccc(Cl)c3c(Nc4ccc(S(=O)(=O)N=C(N)N)cc4)c4ccccc4nc23)CC1`, the TGI with CCRF-CEM leukemia, in the test with KM12 colon, with A549 NSCLC, in the test with HOP-62 NSCLC, in the test on HL-60(TB) leukemia and in the test on M14 melanoma was greater than 100 µM each time. For the same compound, the TGI in the test with TK-10 renal, in the test on SF-268 CNS, with SK-OV-3 ovarian and with UACC-257 melanoma was greater than 100 µM each time.
Turning to `Nc1ncnc2c1c(-c1ccc(Oc3ccccc3)cc1)nn2CC1SSCC1O` (stereo not given), the GI50 is 0.138 µM in the test with CCRF-CEM leukemia; 0.324 µM in the test with KM12 colon; 3.8 µM in the test with A549 NSCLC; 3.6 µM with HOP-62 NSCLC; 1.49 µM with HL-60(TB) leukemia; 0.0609 µM in the test with M14 melanoma. Besides, the GI50 was 1.91 µM in the test with TK-10 renal, 0.126 µM in the test on SF-268 CNS, 1.35 µM with SK-OV-3 ovarian and 2.07 µM in the test on UACC-257 melanoma. Further, the TGI in the test with CCRF-CEM leukemia was found to be 32.5 µM; in the test on KM12 colon, 7.67 µM; in the test on A549 NSCLC, 9.17 µM; in the test on HOP-62 NSCLC, 11.1 µM; in the test with HL-60(TB) leukemia, 7.99 µM; with M14 melanoma, 0.121 µM. Moreover, the TGI in the test with TK-10 renal came to 6.34 µM; in the test with SF-268 CNS, 7.01 µM; in the test with SK-OV-3 ovarian, 7.05 µM; in the test with UACC-257 melanoma it was 10.6 µM.
Turning to `Cc1ccc2ccc3c4ccccc4ccc3c2c1`, the GI50 is 22 µM in the test on CCRF-CEM leukemia; 21.6 µM in the test with KM12 colon; 29.2 µM with A549 NSCLC; 38 µM in the test on HOP-62 NSCLC; 23.8 µM in the test with HL-60(TB) leukemia; 28.6 µM in the test with M14 melanoma. The GI50 in the test on TK-10 renal was 28.5 µM; in the test on SF-268 CNS it was 32.1 µM; in the test on SK-OV-3 ovarian it was 39.5 µM; with UACC-257 melanoma it was 27.1 µM. Also, the TGI in the test with CCRF-CEM leukemia was 52.4 µM; with KM12 colon, 68.5 µM; with A549 NSCLC, greater than 100 µM; with HOP-62 NSCLC, greater than 100 µM; in the test with HL-60(TB) leukemia, 60.5 µM; in the test on M14 melanoma it was greater than 100 µM. For the same compound, the TGI is 67.8 µM in the test with TK-10 renal, greater than 100 µM in the test on SF-268 CNS, greater than 100 µM with SK-OV-3 ovarian and 83.4 µM in the test with UACC-257 melanoma.
Turning to `OC1=CN=C(c2ccccc2)Oc2ccccc21`, the TGI in the test on CCRF-CEM leukemia, with KM12 colon, in the test on A549 NSCLC, in the test with HOP-62 NSCLC, in the test with HL-60(TB) leukemia and in the test with M14 melanoma was greater than 100 µM throughout. The TGI with TK-10 renal, in the test on SF-268 CNS, with SK-OV-3 ovarian and in the test with UACC-257 melanoma was greater than 100 µM in each case.
With `O=C1C2C(C(=O)N1Cc1ccccc1)N(Cc1ccccc1)C(=O)N2Cc1ccccc1` (stereo not given), the TGI in the test with CCRF-CEM leukemia, in the test on KM12 colon, in the test on A549 NSCLC, in the test on HOP-62 NSCLC, with HL-60(TB) leukemia and in the test on M14 melanoma was greater than 100 µM in each case. For the same compound, the TGI in the test with TK-10 renal, in the test with SF-268 CNS, in the test with SK-OV-3 ovarian and in the test on UACC-257 melanoma was greater than 100 µM throughout.
Turning to `CCCCCCCCCCCCCC(=O)O[C@H]1CC[C@H](NC(=O)[C@H](OC)[C@H](O)[C@@H](O)[C@H](O)/C=C/C(C)C)C(=O)N(C)C1`, the GI50 is 0.00238 µM in the test on CCRF-CEM leukemia; 0.00238 µM in the test with KM12 colon; 0.00238 µM with A549 NSCLC; greater than 23.8 µM in the test on HOP-62 NSCLC; 0.00238 µM in the test with HL-60(TB) leukemia; 0.00238 µM in the test with M14 melanoma. In addition, the GI50 in the test on TK-10 renal is 0.05 µM; in the test with SF-268 CNS it was 0.0235 µM; in the test on SK-OV-3 ovarian it was 0.0194 µM; with UACC-257 melanoma it was 0.00238 µM. Moreover, the TGI in the test on CCRF-CEM leukemia was 15 µM and 4.85 µM; with KM12 colon it was 15 µM and 2.96 µM; with A549 NSCLC, 15 µM and 4.49 µM; in the test on HOP-62 NSCLC it was 15 µM and > 23.8 µM; in the test with HL-60(TB) leukemia, 2.43 µM and 3.71 µM; with M14 melanoma, 1.75 µM and 0.413 µM. For the same compound, the TGI in the test with TK-10 renal is 15 µM and > 23.8 µM; with SF-268 CNS it was 15 µM and 2.38 µM; with SK-OV-3 ovarian, 15 µM and > 23.8 µM; with UACC-257 melanoma, 15 µM and 13 µM.
Consider `N=C(N)n1cc(/C=N/N=C(N)N)cn1`, for which the TGI with CCRF-CEM leukemia, with KM12 colon, in the test with A549 NSCLC, in the test on HOP-62 NSCLC, in the test on HL-60(TB) leukemia and in the test with M14 melanoma was greater than 100 µM throughout. In addition, the TGI with TK-10 renal, with SF-268 CNS, with SK-OV-3 ovarian and in the test on UACC-257 melanoma was greater than 100 µM in each case.
For `O=C1OC(=O)c2c1nc1ccccc1c2-c1ccccc1`, the TGI in the test on CCRF-CEM leukemia, in the test on KM12 colon, in the test on A549 NSCLC, in the test on HOP-62 NSCLC, with HL-60(TB) leukemia and with M14 melanoma was greater than 100 µM throughout. In addition, the TGI in the test with TK-10 renal, with SF-268 CNS, in the test on SK-OV-3 ovarian and with UACC-257 melanoma was greater than 100 µM in each case.
Consider `CN1CCCc2nc3ccccc3n2C1`, for which the TGI with CCRF-CEM leukemia, in the test with KM12 colon, with A549 NSCLC, in the test with HOP-62 NSCLC, in the test on HL-60(TB) leukemia and in the test with M14 melanoma was greater than 100 µM in each case. In addition, the TGI in the test on TK-10 renal, in the test with SF-268 CNS, with SK-OV-3 ovarian and with UACC-257 melanoma was greater than 100 µM in each case.
`CC(C)(C)C1=NO[C@H]2[C@@H](NC(=O)c3ccccc3)CC[C@@H]12`: the TGI in the test with CCRF-CEM leukemia, in the test on KM12 colon, in the test with A549 NSCLC, in the test on HOP-62 NSCLC, in the test with HL-60(TB) leukemia and in the test with M14 melanoma was greater than 100 µM throughout. Moreover, the TGI with TK-10 renal, in the test on SF-268 CNS, in the test on SK-OV-3 ovarian and in the test with UACC-257 melanoma was greater than 100 µM throughout.
Regarding `O=[N+]([O-])c1cccnc1S(=O)(=O)c1ccccc1`, the TGI with CCRF-CEM leukemia is greater than 100 µM; in the test on KM12 colon, 36.3 µM; with A549 NSCLC it was 40.4 µM; in the test with HOP-62 NSCLC, 32.8 µM; in the test with HL-60(TB) leukemia it was 7.01 µM; in the test with M14 melanoma, 22.5 µM. Moreover, the TGI in the test with TK-10 renal is 22.2 µM; with SF-268 CNS, 27.3 µM; in the test with SK-OV-3 ovarian, 44.7 µM; in the test with UACC-257 melanoma, 33.4 µM.
On to `CCOC(=O)c1cn(C)c2c(OC)c3ccccc3c(OC)c2c1=O`, for which the GI50 is 34.1 µM in the test with CCRF-CEM leukemia; 19.7 µM in the test on KM12 colon; 36.4 µM in the test on A549 NSCLC; 33.3 µM with HOP-62 NSCLC; 35.9 µM with HL-60(TB) leukemia; 19.8 µM in the test with M14 melanoma. In addition, the GI50 with TK-10 renal is 30.1 µM; with SF-268 CNS, 20.1 µM; with SK-OV-3 ovarian, 77.1 µM; with UACC-257 melanoma, 16.6 µM. Moreover, the TGI in the test on CCRF-CEM leukemia is greater than 100 µM; in the test on KM12 colon it was 48.3 µM; with A549 NSCLC, greater than 100 µM; with HOP-62 NSCLC, 82.7 µM; with HL-60(TB) leukemia, greater than 100 µM; in the test on M14 melanoma it was 45 µM. In addition, the TGI was 62 µM in the test on TK-10 renal, 74.9 µM in the test with SF-268 CNS, greater than 100 µM with SK-OV-3 ovarian and 40.6 µM in the test on UACC-257 melanoma.
